Results on one compound are retold here after patent US20040259948A1, “Reciprocal regulation of inflammation and lipid metabolism by liver X receptors” (priority 2003, published 2004).

For assay [1], the system named is Thioglycolate-elicited peritoneal macrophages. As to the kind of experiment: Macrophage response to E. coli infection: iNOS mRNA and NO production. Format: cell-based, murine. The settings on record: 18 h, pretreated with 1 μM ligand.
Experimental: Thioglycolate-elicited peritoneal macrophages were infected in vitro with Escherichia coli. After 18 hours, expression of inducible nitric oxide synthase (iNOS) mRNA and nitric oxide (NO) production were assessed. […] Cells were then infected with E. coli (A, B) or treated with 100 ng/ml LPS(C, D, E) as indicated. After 18 h, NO production was determined using a colorimetric assay (A, D), or mRNA levels were determined using real-time quantitative PCR assays (B, C, E).
Thioglycolate-elicited peritoneal macrophages were cultured in RPMI containing 10% fetal bovine serum (FBS). […] For ligand treatments, cells were in cultured medium supplemented with 5% lipoprotein-deficient serum (LPDS) and ligands for 18 h before stimulation. […] NO production was determined spectrophotometrically (Castrillo, A. et al. 2000 Mol Cell Biol 20:1692-1698).
Total RNA was extracted using Trizol reagent (Life Technologies, Inc.). […] Real-time quantitative PCR (TaqMan) analysis was performed using an Applied Biosystems 7700 sequence detector.
Assay [2] has as its target T1, LXRα/RXRα (Homo sapiens, UniProt Q13133).
T1 construct: expressed in transfected cells; host or cells: RAW 264.7
T1 sequence (Q13133 1-447): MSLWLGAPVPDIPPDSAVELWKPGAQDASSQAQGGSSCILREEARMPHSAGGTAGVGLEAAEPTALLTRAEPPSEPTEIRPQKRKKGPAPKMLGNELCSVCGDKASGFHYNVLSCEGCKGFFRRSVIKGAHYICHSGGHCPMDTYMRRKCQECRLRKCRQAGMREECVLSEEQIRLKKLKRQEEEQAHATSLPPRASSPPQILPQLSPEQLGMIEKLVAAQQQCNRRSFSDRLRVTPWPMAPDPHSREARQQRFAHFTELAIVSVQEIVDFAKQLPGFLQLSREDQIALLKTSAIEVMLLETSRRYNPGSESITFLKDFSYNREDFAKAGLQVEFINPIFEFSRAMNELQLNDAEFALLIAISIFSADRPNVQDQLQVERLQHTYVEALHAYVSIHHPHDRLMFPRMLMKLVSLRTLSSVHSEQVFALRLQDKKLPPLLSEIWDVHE
T1 sequence (P19793 1-462 partner): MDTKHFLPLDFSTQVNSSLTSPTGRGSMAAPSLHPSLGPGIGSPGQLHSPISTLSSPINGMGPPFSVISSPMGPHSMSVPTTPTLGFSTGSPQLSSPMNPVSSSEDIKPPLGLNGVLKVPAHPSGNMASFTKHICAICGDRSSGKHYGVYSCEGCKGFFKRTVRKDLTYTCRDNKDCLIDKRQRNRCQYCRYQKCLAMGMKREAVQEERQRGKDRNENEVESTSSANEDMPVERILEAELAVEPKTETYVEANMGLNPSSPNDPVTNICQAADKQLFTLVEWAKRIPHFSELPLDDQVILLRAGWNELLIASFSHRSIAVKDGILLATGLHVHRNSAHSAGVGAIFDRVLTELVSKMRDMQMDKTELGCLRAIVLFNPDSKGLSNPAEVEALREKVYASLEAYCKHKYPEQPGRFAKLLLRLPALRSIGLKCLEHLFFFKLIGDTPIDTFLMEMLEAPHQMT
The experiment in a line: Luciferase reporter transfection in RAW 264.7 cells, LXRα/RXRα. In kind it is cell-based. To be noted: 2 μM. The procedure: (§1) We next investigated the mechanism by which LXR inhibits iNOS and COX-2 expression. […] RAW 264.7 cells were transfected with expression vectors for either LXRα/RXRα or LXRβ/RXRα along with luciferase reporter constructs. The LXR agonist inhibited expression of both iNOS and COX-2 gene promoters in a receptor-dependent fashion (FIG. 4 A and B). […] E, A dominant-negative IKK expression vector (IKK DN) blocks LXR-dependent repression of the COX-2 promoter. Transfected cells were treated with DMSO (ctrl), GW3965 (GW), LPS, or GW3965 and LPS. […] RAW 264.7 cells were transiently transfected with expression vectors for LXRα/RXRα, LXRβ/RXRα or dominant-negative I kappa B kinase (IKK) along with iNOS (A), COX-2 (B, E, F), NF-κB (C), AP-1 (D) or COX-2/NF-κB mutant (F) luciferase reporters. […] As activation of iNOS and COX-2 gene promoters by LPS is known to depend on interactions between AP-1 and NF-κB transcription factors, the effect of LXR on minimal promoters containing binding sites for these factors was evaluated. […] Moreover, the inhibitory effect of LXR on the COX-2 promoter was lost when NF-κB activity was blocked by transfection of a dominant-negative IKK or when binding sites for NF-κB were mutated (FIGS. 4E and F). These observations indicate that inhibition of inflammatory gene expression by LXR ligands involves antagonism of NF-κB signaling.
(§2) Reagents and plasmids. […] Oxysterols, LDL and ox-LDL were from Sigma and Intracell, respectively. LPS from Salmonella typhimurium was from Sigma. Expression plasmids for LXRα, LXRβ and IKK-DN (Castrillo, A. et al. 2001 J Biol Chem 276:15854-15860; Laffitte, B. A. et al. 2001 Mol Cell Biol 21:7558-7568), and reporter plasmids for NOS-2, (NFκB)3-LUC, (AP-1)4-LUC and COX-2 have been described (Callejas, N. A. et al. 2000 Gastroenterology 119:493-501).
Cell culture and transfections. Thioglycolate-elicited peritoneal macrophages were cultured in RPMI containing 10% fetal bovine serum (FBS). RAW 264.7 cells were cultured in DMEM containing 10% FBS. For ligand treatments, cells were in cultured medium supplemented with 5% lipoprotein-deficient serum (LPDS) and ligands for 18 h before stimulation. Bacterial infection in vitro was performed as described (Chen, L. M. et al. 1996 Mol Microbiol 21:1101-1115). Transient transfections of RAW 264.7 cells were performed in triplicate in 48-well plates using Superfect reagent (Life Technologies). After transfection, cells were incubated in medium containing 10% LPDS and the indicated ligands for 18 h before stimulation with LPS for an additional 18 h. Luciferase activity was normalized to β-galactosidase activity. NO production was determined spectrophotometrically (Castrillo, A. et al. 2000 Mol Cell Biol 20:1692-1698).
Background: Reporter assays use an easily measured gene product as a stand-in for the process of interest.

The target in assay [3] is T2, LXRβ/RXRα (Homo sapiens, UniProt P55055).
T2 construct: expressed in transfected cells; host or cells: RAW 264.7
T2 sequence (P55055 1-460): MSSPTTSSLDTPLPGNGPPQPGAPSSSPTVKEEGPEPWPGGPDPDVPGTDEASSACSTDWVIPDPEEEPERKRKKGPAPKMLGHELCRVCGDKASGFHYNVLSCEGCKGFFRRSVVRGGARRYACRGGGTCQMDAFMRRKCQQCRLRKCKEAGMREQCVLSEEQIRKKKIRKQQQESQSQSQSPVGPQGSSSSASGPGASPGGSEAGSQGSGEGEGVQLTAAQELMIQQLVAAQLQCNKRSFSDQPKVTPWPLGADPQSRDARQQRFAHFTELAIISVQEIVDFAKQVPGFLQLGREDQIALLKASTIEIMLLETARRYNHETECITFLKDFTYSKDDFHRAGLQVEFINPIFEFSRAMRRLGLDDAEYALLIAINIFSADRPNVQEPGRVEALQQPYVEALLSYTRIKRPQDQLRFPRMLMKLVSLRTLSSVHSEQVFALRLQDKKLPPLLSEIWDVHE
T2 sequence (P19793 1-462 partner): T1 sequence (P19793 1-462 partner)
The experiment in a line: Luciferase reporter transfection in RAW 264.7 cells, LXRβ/RXRα. The settings on record: 2 μM. In kind it is cell-based. The procedure:
as §1, §2
Cell culture and transfections. Thioglycolate-elicited peritoneal macrophages were cultured in RPMI containing 10% fetal bovine serum (FBS). […] NO production was determined spectrophotometrically (Castrillo, A. et al. 2000 Mol Cell Biol 20:1692-1698).

Assay [4] relates to human smooth muscle cells. As to the kind of experiment: TNF-induced gene expression in human smooth muscle cells. In kind it is cell-based. The settings on record: TNF 6 hours; real time qPCR. The procedure: Activation of LXR by synthetic ligands inhibits inflammatory gene expression in multiple human cell types (FIG. 7A-C). TNFα plays a role in the induction of inflammatory mediators in during inflammation. Cells were treated for 6 hours with TNF as indicated and gene expression was measured by real time qPCR.
(In general: Quantitative PCR measures a nucleic acid by following its amplification.)

Structures are written as SMILES.

With `O=C(O)Cc1cccc(OCCCN(Cc2cccc(C(F)(F)F)c2Cl)CC(c2ccccc2)c2ccccc2)c1` [GW3965], the “iNOS activity (NO / nitrite production)” value in assay [1] (colorimetric assay) is “reduced”. In assay [1] (real-time quantitative PCR), the “iNOS mRNA” value was “significantly reduced”. Besides, the “induction of the COX-2 promoter by LPS (luciferase reporter)” value in assay [2] and in assay [3] was “inhibits induction” each time. For the same compound, the “induction of the iNOS promoter by LPS (luciferase reporter)” value in assay [2] and in assay [3] was “inhibits induction” throughout. The “luciferase reporter containing multiple NF-κB binding sites” value in assay [2] (LPS) and in assay [3] (LPS) was “inhibits expression” throughout. Further, in assay [2] (LPS, COX-2/NF-κB mutant), the “COX-2 luciferase reporter lacking the NF-κB binding site” value is on record as “fails to inhibit”. The “inhibitory effect on the COX-2 promoter with dominant-negative IKK” value in assay [2] (LPS, IKK-DN co-transfected, LXR vector not specified) is on record as “lost”. Also, the TNF-induced gene expression result in assay [4] was “inhibited”.
